# Measured values as given in patent US6924311B2, “Methods for affecting various diseases utilizing LXR compounds” (X-Ceptor Therapeutics, Inc., priority 2001, dated 2005).
# What was measured:
# [1] = Plasma HDL cholesterol levels in wildtype and LXR knockout mice; type: in vivo; settings: 10 mg/kg daily oral, day 7
# Protocol: To determine the individual contribution of LXRα and LXRβ to increases in HDL cholesterol levels, Compound 1 (10 mg/kg) was administered for seven days by daily oral gavage in a sesame oil/ethanol vehicle via a 1 cc syringe fitted with a 20G disposable feeding needle. Compound was solvated in ethanol (5% final volume) and brought up to final volume with sesame oil (Sigma, St. Louis, Mo.). On day 7 mice were anesthetized with isofluorane and blood samples were obtained by retro-orbital plexus puncture. Blood samples were collected in heparinized tubes, centrifuged to obtain plasma and stored at -20° C. HDL levels were determined by precipitating non-HDL cholesterol from plasma samples using a precipitating reagent (Wako Diagnostic 278-67409, Richmond, Va.). The remaining HDL cholesterol was than quantitated using a colorimetric enzymatic assay adapted to a 96 well plate format (Infinity Total Cholesterol Reagent, Sigma, St. Louis, Mo.). […] (23%) strains and unchanged when LXRβ is eliminated. […] Thus either LXRα or LXRβ alone is competent to elevate HDL cholesterol in response to agonist treatment (FIG. 5). The lack of selectivity in HDL regulation contrasts the selective decrease in triglyceride levels observed only when LXRα is eliminated (LXRα-/-, LXRαβ-/-; FIGS. 1 and 2).
# [2] = Dietary cholesterol absorption, fecal extraction method; type: in vivo, mice; settings: 50 mg/kg daily oral, 7 days
# Protocol: Induction of cholesterol efflux pumps such as ABCA1 in the intestine limits the absorption of dietary cholesterol by stimulating the efflux of cholesterol out of intestinal enterocytes and into the intestinal lumen where it is excreted. To examine the effect of LXR pan-agonists on dietary cholesterol absorption, mixed wildtype and LXRαβ−/− mice were treated with vehicle or Compound 1 (50 mg/kg) for seven days prior to the initiation of the cholesterol absorption protocol. Compound 1 was administered by daily oral gavage in a 1% carboxy methyl-cellulose/ethanol vehicle via a 1-cc syringe fitted with a 20G disposable feeding needle. Compound was solvated in ethanol (5% final volume) and brought up to final volume with 1% carboxy methylcellulose. On day seven of the study, animals received a single oral bolus dose of 0.67 μCi [4-^14C]cholesterol (New England Nuclear, Boston, Mass.) and 1.3 μCi [5,6-^3H]sitostanol (ARC, St. Louis Mo.) by gavage in MCT oil (Mead Johnson, Evansville, Ind.). […] Extracted samples were counted on a scintillation counter and then analyzed based upon the following equation. [((^14C/^3H) dosing mixture)−(^14C/^3H) fecal samples)]/((^14C/^3H) dosing mixture). […] This agonist-dependent effect is lost in LXRαβ−/− mice indicating a requirement for LXR activity in mediating this activity.
# ABCA1 mRNA = ABCA1 mRNA induction in cultured peritoneal macrophages; type: cell-based, mice; settings: 24 hours
# From the text: (§1) The individual contributions of both receptors to macrophage gene expression were examined by first measuring the amount of mRNA encoding LXRα and LXRβ in thioglycolate-elicited peritoneal macrophages obtained from mixed wildtype mice. Thioglycolate-elicited peritoneal macrophages were isolated from mice 4 days after peritoneal injection of thioglycolate media. Peritoneal macrophages were harvested by lavage of the peritoneum with phosphate buffered saline (PBS), cells were washed, transferred to 60 mm culture plates and incubated at 37° C. in RPMI 1640 media (Life Technologies) containing 10% FBS, 2 mmol/L glutamine, 100 μg/mL streptomycin and 100 IU penicillin (Life Technologies). After 5 hours at 37° C., cells were washed 5 times with PBS to remove non-adherent cells and adherent cells were further incubated in RPMI 1640 media supplemented with 10% FBS for 24 hours. To determine the mRNA levels of LXRα and LXRβ, after 24 hours total RNA was isolated from cultured macrophages using RNeasy kits (QIAGEN Inc.) according to the supplier's total RNA isolation procedure. The RNA samples were further treated with deoxyribonuclease I to eliminate contaminating genomic DNA. LXRα and LXRβ mRNA levels were than analyzed by real-time based quantitative PCR using Perkin Elmer ABI Prism 7700 and Sequence Detection System software (Perkin Elmer). […] To further examine LXR-dependent gene expression in macrophages, peritoneal macrophages were isolated as described above from mixed wildtype, LXRα−/− (C57BL/6), LXRβ−/−, and LXRαβ−/− mice. After removal of non-adherent cells, the remaining macrophages were than cultured in either the absence or presence of LXR pan-agonist (1.0 μM Compound 1) for 24 hours. At the end of the experiment total RNA was isolated from cultured macrophages using RNeasy kits (QIAGEN Inc.) according to the supplier's total RNA isolation procedure. RNA samples were further treated with deoxyribonuclease I to eliminate contaminating genomic DNA before use. The LXR agonist-dependent induction of the ABCA1 and ABCG1 mRNAs were than analyzed by real-time based quantitative PCR using Perkin Elmer ABI Prism 7700 and Sequence Detection System software (Perkin Elmer). ABCA1 and ABCG1 function as efflux pumps that mediate the transfer of intracellular cholesterol out of cells to HDL particles, a process referred to as reverse cholesterol transport. […] Elimination of LXRα activity (LXRα−/−) has no effect on the agonist-dependent response. In contrast, elimination of LXRβ activity (LXRβ−/−) reduces the agonist-dependent induction of ABCA1 by 82% and the ABCG1 induction by 50%. […] Thus LXRβ alone is sufficient to allow the maximum induction of ABCA1 and ABCG1 in peritoneal macrophages.
# ABCG1 mRNA = ABCG1 mRNA induction in cultured peritoneal macrophages; type: cell-based, mice; settings: 24 hours
# From the text: as §1
# LXRβ = target: T1, LXRβ (Homo sapiens, UniProt P55055); settings: stated as considered, no test described; cited from earlier work
# T1 sequence (P55055 1-460): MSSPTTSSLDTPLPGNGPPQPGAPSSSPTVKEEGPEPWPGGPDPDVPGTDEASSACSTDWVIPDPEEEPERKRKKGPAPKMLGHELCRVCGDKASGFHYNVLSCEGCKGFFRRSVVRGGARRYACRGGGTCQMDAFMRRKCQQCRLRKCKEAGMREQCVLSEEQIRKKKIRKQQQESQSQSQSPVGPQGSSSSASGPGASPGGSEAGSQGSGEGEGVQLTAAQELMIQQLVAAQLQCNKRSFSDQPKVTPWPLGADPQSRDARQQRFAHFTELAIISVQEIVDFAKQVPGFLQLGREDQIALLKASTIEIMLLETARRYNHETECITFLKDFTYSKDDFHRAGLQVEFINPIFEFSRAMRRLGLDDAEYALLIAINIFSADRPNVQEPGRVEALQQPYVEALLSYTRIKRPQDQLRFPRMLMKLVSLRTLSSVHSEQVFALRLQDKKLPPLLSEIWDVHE
# [3] = LXRβ−/− macrophages versus wildtype, 1.0 μM
# [4] = Mus musculus, Macrophage, wildtype macrophages
smiles,measurement,setting,value
"O=S(=O)(c1ccccc1)N(CC(F)(F)F)c1ccc(C(O)(C(F)(F)F)C(F)(F)F)cc1 [Compound 1, N-(2,2,2-trifluoroethyl)-N-[4-(2,2,2-trifluoro-1-hydroxy-1-trifluoromethylethyl)-phenyl]-benzene sulfonamide]",agonist-dependent increase in HDL,[1]; LXRαβ−/− mice,completely lost
same,reduction of agonist-dependent increase in HDL,[1]; LXRα−/− A129 mice versus wildtype,23%
same,reduction of agonist-dependent increase in HDL,[1]; LXRα−/− C57BL/6 mice versus wildtype,8%
same,agonist-dependent increase in HDL,[1]; LXRβ−/− mice,unchanged
same,effect on HDL levels,[1]; wildtype mice,significant increase in HDL levels
same,effect on cholesterol absorption,[2]; LXRαβ−/− mice,lost
same,effect on cholesterol absorption,[2]; mixed wildtype mice,significant decrease in cholesterol absorption
same,agonist-dependent ABCA1 mRNA induction,"ABCA1 mRNA; LXRαβ−/− macrophages, 1.0 μM",completely blocks the response
same,agonist-dependent ABCA1 mRNA induction,"ABCA1 mRNA; LXRα−/− macrophages, 1.0 μM",no effect
same,reduction of agonist-dependent induction of ABCA1,ABCA1 mRNA; [3],82%
same,fold induction at 1 µM,ABCA1 mRNA; [4],28
same,agonist-dependent ABCG1 mRNA induction,"ABCG1 mRNA; LXRαβ−/− macrophages, 1.0 μM",completely blocks the response
same,agonist-dependent ABCG1 mRNA induction,"ABCG1 mRNA; LXRα−/− macrophages, 1.0 μM",no effect
same,reduction of agonist-dependent induction of ABCG1,ABCG1 mRNA; [3],50%
same,fold induction at 1 µM,ABCG1 mRNA; [4],8
same,binding and activation of LXRβ,LXRβ,binds and activates both LXRα and LXRβ with similar potency and efficacy
